Source: ChEMBL document CHEMBL6071190, “Discovery of BAY 2666605, a Molecular Glue for PDE3A and SLFN12” (ACS Med Chem Lett, 2024)

How the values were obtained:
[1] = tested on: HeLa; assay: Antiproliferative activity against human HeLa cells incubated for 72 hrs by Cell Titer Glo luminescence assay; type: functional, cell-based
[2] = biological target: cGMP-inhibited 3',5'-cyclic phosphodiesterase 3A (Homo sapiens, UniProt Q14432); assay: Inhibition of human full-length PDE3A expressed in Sf9 cells using [8-3H]adenosine 3', 5'-cyclic phosphate as substrate incubated for 60 mins by microbeta scintillation counting method
Sequence of cGMP-inhibited 3',5'-cyclic phosphodiesterase 3A (Q14432 whole entry): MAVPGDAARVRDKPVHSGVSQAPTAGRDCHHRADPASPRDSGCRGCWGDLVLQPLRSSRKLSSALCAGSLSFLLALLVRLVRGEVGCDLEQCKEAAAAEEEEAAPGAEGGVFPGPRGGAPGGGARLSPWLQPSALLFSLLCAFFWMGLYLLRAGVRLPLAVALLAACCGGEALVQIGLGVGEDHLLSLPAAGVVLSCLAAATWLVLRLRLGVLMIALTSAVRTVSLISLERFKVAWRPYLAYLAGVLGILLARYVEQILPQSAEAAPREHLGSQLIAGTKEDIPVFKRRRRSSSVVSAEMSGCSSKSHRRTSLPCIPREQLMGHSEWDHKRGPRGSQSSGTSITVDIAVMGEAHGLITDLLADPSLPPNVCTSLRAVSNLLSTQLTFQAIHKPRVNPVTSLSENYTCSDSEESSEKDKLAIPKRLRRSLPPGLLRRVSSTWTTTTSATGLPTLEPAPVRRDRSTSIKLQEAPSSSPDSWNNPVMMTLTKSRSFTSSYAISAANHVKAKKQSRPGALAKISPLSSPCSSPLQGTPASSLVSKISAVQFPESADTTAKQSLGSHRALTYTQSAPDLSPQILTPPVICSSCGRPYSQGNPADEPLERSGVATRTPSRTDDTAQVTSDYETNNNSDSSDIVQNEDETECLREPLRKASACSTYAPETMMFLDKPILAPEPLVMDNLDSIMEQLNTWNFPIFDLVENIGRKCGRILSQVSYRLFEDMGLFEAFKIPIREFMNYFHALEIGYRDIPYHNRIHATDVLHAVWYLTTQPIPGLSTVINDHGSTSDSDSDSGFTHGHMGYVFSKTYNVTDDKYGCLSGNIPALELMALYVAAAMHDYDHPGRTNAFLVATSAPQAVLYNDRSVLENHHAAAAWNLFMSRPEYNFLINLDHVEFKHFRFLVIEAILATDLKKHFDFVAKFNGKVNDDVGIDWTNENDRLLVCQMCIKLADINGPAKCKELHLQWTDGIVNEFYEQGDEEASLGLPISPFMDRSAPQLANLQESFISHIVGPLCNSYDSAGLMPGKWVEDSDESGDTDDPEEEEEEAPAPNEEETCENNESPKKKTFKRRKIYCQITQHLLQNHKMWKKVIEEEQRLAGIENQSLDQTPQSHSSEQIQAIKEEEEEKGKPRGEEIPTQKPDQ

[3] = Selectivity ratio of IC50 for inhibition of full-length human PDE3A expressed in Sf9 cells to EC50 for antiproliferative activity against human HeLa cells
[4] = tested on: SK-MEL3; assay: Antiproliferative activity against human SK-MEL3 cells incubated for 72 hrs by Cell Titer Glo luminescence assay; type: functional, cell-based; conditions: SK-MEL3, 72 h
[5] = Metabolic stability in rat hepatocytes assessed as bioavailability at 1 uM measured upto 90 mins by LC-MS/MS analysis; type: ADME, Hepatocyte
[6] = Metabolic stability in mouse hepatocytes assessed as bioavailability at 1 uM measured upto 90 mins by LC-MS/MS analysis; type: ADME, Hepatocyte
[7] = tested on: Hs-578T; assay: Antiproliferative activity against human Hs-578T cells incubated for 72 hrs by Cell Titer Glo luminescence assay; type: functional, cell-based
[8] = tested on: DK-MG; assay: Antiproliferative activity against human DK-MG cells incubated for 72 hrs by Cell Titer Glo luminescence assay; type: functional, cell-based
[9] = Antiproliferative activity against human NCI-H2172 cells incubated for 72 hrs by Cell Titer Glo luminescence assay; type: functional, cell-based; conditions: NCI-H2172, 72 h
[10] = Antiproliferative activity against human NCI-H196 cells incubated for 72 hrs by Cell Titer Glo luminescence assay; type: functional, cell-based; conditions: NCI-H196, 72 h
[11] = tested on: A2058; assay: Antiproliferative activity against human A2058 cells incubated for 72 hrs by Cell Titer Glo luminescence assay; type: functional, cell-based; conditions: A2058, 72 h
[12] = tested on: C32; assay: Antiproliferative activity against human C32 cells incubated for 72 hrs by Cell Titer Glo luminescence assay; type: functional, cell-based; conditions: C32, 72 h
[13] = tested on: RVH-421; assay: Antiproliferative activity against human RVH-421 cells incubated for 72 hrs by Cell Titer Glo luminescence assay; type: functional, cell-based; conditions: RVH-421, 72 h
[14] = Antiproliferative activity against human L3.3 cells incubated for 72 hrs by Cell Titer Glo luminescence assay; type: functional, cell-based; conditions: L3.3, 72 h
[15] = Clearance in rat blood; type: ADME, tissue-based
[16] = Clearance in mouse blood; type: ADME, tissue-based
[17] = Half life in iv dosed mouse; type: ADME, organism-based; conditions: in vivo
[18] = Half life in iv dosed rat; type: ADME, organism-based; conditions: in vivo
[19] = Half life in iv dosed dog; type: ADME, organism-based, Canis lupus familiaris; conditions: in vivo
[20] = Oral bioavailability in rat; type: ADME, organism-based; conditions: in vivo
[21] = Oral bioavailability in dog; type: ADME, organism-based, Canis lupus familiaris; conditions: in vivo
[22] = Protein binding in plasma (unknown origin); type: ADME, cell-free; conditions: read-out: PPB (converted)
[23] = tested on: IGR-37 cell line; assay: Antitumor activity against human IGR-37 cells xenografted in po dosed NMRI nude mouse assessed as tumor growth inhibition administered twice daily; type: functional, organism-based; conditions: dose 0.5-2.5 mg/kg
[24] = Toxicity in NOD-SCID mouse assessed as tolerability at 10 mg/kg, po BID; type: organism-based; conditions: in vivo
[25] = Toxicity in NOD-SCID mouse assessed as weight loss at 10 mg/kg, po BID; type: organism-based; conditions: in vivo
[26] = tested on: GB-1; assay: Antiproliferative activity against human GB-1 cells incubated for 72 hrs by CellTiter-Glo luminescence assay; type: functional, cell-based; conditions: GB-1, 72 h
[27] = Antiproliferative activity against human IGR-37 cell line; type: functional, cell-based
[28] = Metabolic stability in dog hepatocytes assessed as bioavailability at 1 uM measured upto 90 mins by LC-MS/MS analysis; type: ADME, Canis lupus familiaris, Hepatocyte
[29] = Metabolic stability in human hepatocytes assessed as bioavailability at 1 uM measured upto 90 mins by LC-MS/MS analysis; type: ADME, Hepatocyte
[30] = Oral bioavailability in mouse; type: ADME, organism-based; conditions: in vivo

EC50 [1]: 0.00104 µM
IC50 [2]: 0.082 µM
EC50 [4]: 0.00281 µM
predicted hepatic bioavailability (Fh) from hepatocyte stability at 1 µM [5]: 94%
Fh at 1.5 h, 1 µM [6]: 85%
clearance [15]: 4.17 mL/min/kg
clearance [16]: 12.5 mL/min/kg
half-life [17]: 4.6 h
half-life [18]: 15 h
half-life [19]: 13 h
bioavailability [20]: > 95%
bioavailability [21]: > 95%
fraction unbound [22]: 0.002
Fh at 1.5 h, 1 µM [28]: 70%
hepatic bioavailability predicted from hepatocyte stability (Fh) at 1 µM [29]: 73%
bioavailability [30]: > 95%
Structure (SMILES): C[C@@H]1OC(=O)NN=C1c1ccc(-c2ccc(F)cc2)c(C(F)(F)F)c1
Ratio IC50/EC50 [3]: 79
EC50 [7]: 0.033 µM
EC50 [8]: 0.022 µM
EC50 [9]: 0.038 µM
EC50 [10]: 0.15 µM
EC50 [11]: 0.038 µM
EC50 [12]: 0.058 µM
EC50 [13]: 0.14 µM
EC50 [14]: 0.082 µM
Activity [23]: Dose-Dependent Effect
Activity [24]: Non-Toxic
Activity [25]: Non-Toxic
EC50 [26]: 0.008 µM
EC50 [27]: 0.0031 µM
